# Results reported in ChEMBL document CHEMBL2203000, “Discovery of AC710, a Globally Selective Inhibitor of Platelet-Derived Growth Factor Receptor-Family Kinases” (ACS Med Chem Lett, 2012).
# What was measured:
# [1] = Aqueous solubility of the compound in water; format: physicochemical
# [2] = Oral bioavailability in Sprague-Dawley rat plasma at 10 mg/kg by LC-MS/MS analysis; format: ADME, organism-based; settings: Sprague-Dawley, plasma
# [3] = AUC in Sprague-Dawley rat plasma at 10 mg/kg, po by LC-MS/MS analysis; format: ADME, organism-based; set-up: dose 10 mg/kg, route oral; settings: Sprague-Dawley, plasma
# [4] = Clearance in Sprague-Dawley rat plasma at 1 mg/kg, iv and 10 mg/kg, po by LC-MS/MS analysis; format: ADME, organism-based
# [5] = tested on: NFS-60; experiment: Antitumor activity against mouse M-NFS-60 cells xenografted in CD-1 nude mouse assessed as inhibition of tumor growth measured after 4 days of tumor implantation; format: functional, cell-based
# [6] = Aqueous solubility of the compound at pH 2 to 7.4; format: physicochemical; settings: buffer
# [7] = Antitumor activity against mouse M-NFS-60 cells xenografted in CD-1 nude mouse assessed as inhibition of tumor growth at 100 mg/kg, po measured after 4 of tumor implantation; format: functional; settings: read-out: TGI
# [8] = Antitumor activity against mouse M-NFS-60 cells xenografted in CD-1 nude mouse assessed as inhibition of tumor growth at 30 mg/kg, po measured after 4 of tumor implantation; format: functional; settings: read-out: TGI
# [9] = Antitumor activity against mouse M-NFS-60 cells xenografted in CD-1 nude mouse assessed as inhibition of tumor growth at 10 mg/kg, po measured after 4 of tumor implantation; format: functional; settings: read-out: TGI
# [10] = tested on: Rattus norvegicus; experiment: Toxicity in rat at 200 mg/kg administered for 7 days; format: organism-based; set-up: dose 200 mg/kg; settings: in vivo, 168 h
# [11] = AUC in po dosed CD-1 mouse by LC-MS/MS analysis; format: ADME, organism-based; settings: plasma
# [12] = tested on: Rattus norvegicus; experiment: Toxicity in rat assessed as diarrhea at 800 mg/kg administered for 7 days; format: organism-based; set-up: dose 800 mg/kg; settings: in vivo, 168 h
# [13] = biological target: T1, Cytochrome P450 3A4 (Homo sapiens, UniProt P08684); experiment: Inhibition of CYP3A4; format: ADME
# [14] = biological target: Cytochrome P450 2C19 (Homo sapiens, UniProt P33261); experiment: Inhibition of CYP2C19; format: ADME
# [15] = biological target: T2, Cytochrome P450 2D6 (Homo sapiens, UniProt P10635); experiment: Inhibition of CYP2D6; format: ADME
# [16] = biological target: T3, Cytochrome P450 1A2 (Homo sapiens, UniProt P05177); experiment: Inhibition of CYP1A2; format: ADME
# T3 sequence (P05177 whole entry): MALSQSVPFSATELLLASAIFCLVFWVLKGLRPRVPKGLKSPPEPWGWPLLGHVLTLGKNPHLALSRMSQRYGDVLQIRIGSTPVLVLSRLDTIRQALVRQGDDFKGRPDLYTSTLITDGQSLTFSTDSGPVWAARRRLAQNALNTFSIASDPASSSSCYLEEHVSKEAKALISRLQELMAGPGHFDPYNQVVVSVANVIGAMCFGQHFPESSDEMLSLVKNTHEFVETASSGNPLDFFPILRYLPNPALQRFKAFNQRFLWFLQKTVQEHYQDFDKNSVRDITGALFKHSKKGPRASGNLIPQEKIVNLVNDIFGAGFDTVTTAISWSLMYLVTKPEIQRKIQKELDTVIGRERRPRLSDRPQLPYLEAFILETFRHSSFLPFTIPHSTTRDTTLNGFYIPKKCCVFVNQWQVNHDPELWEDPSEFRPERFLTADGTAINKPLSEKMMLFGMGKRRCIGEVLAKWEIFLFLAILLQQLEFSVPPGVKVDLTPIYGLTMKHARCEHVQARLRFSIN
# [17] = biological target: Cytochrome P450 2C9 (Homo sapiens, UniProt P11712); experiment: Inhibition of CYP2C9; format: ADME
# [18] = biological target: T4, Mast/stem cell growth factor receptor Kit (Homo sapiens, UniProt P10721); experiment: Binding affinity to KIT expressed in HEK-293 cells; format: cell-based, HEK293
# [19] = biological target: T4, Mast/stem cell growth factor receptor Kit; experiment: Inhibition of KIT phosphorylation in human H526 cells; format: cell-based
# [20] = tested on: Rattus norvegicus; experiment: Toxicity in rat assessed as mortality at 800 mg/kg administered for 7 days; format: organism-based; set-up: dose 800 mg/kg; settings: in vivo, 168 h
# [21] = Antitumor activity against mouse M-NFS-60 cells xenografted in CD-1 nude mouse assessed as inhibition of tumor growth at 3 mg/kg, po measured after 4 of tumor implantation; format: functional; settings: read-out: TGI
# [22] = tested on: Mus musculus; experiment: Toxicity in collagen-induced arthritis mouse assessed as body weight and body condition at 3 to 30 mg/kg for 15 days; format: organism-based; set-up: dose 3-30 mg/kg; settings: in vivo, 360 h
# [23] = tested on: Mus musculus; experiment: Toxicity in human MV4-11 cells xenografted in SCID mouse assessed as change in body weight at 0.3 to 30 mg/kg foe 2 weeks; format: organism-based; set-up: dose 0.3-30 mg/kg; settings: in vivo, 336 h
# [24] = biological target: T2, Cytochrome P450 2D6; experiment: Induction of CYP2D6 at 3 to 30 uM; format: ADME
# [25] = biological target: T1, Cytochrome P450 3A4; experiment: Induction of CYP3A4 at 3 to 30 uM; format: ADME
# [26] = biological target: T3, Cytochrome P450 1A2; experiment: Induction of CYP1A2 at 3 to 30 uM; format: ADME
# [27] = biological target: T5, Platelet-derived growth factor receptor beta (Homo sapiens, UniProt P09619); experiment: Binding affinity to PDGFRbeta expressed in HEK-293 cells; format: cell-based, HEK293
# [28] = biological target: T5, Platelet-derived growth factor receptor beta; experiment: Inhibition of PDGFRbeta phosphorylation in human MG63 cells; format: cell-based, MG-63
# Target sequence in this assay (P09619 whole entry, looked up): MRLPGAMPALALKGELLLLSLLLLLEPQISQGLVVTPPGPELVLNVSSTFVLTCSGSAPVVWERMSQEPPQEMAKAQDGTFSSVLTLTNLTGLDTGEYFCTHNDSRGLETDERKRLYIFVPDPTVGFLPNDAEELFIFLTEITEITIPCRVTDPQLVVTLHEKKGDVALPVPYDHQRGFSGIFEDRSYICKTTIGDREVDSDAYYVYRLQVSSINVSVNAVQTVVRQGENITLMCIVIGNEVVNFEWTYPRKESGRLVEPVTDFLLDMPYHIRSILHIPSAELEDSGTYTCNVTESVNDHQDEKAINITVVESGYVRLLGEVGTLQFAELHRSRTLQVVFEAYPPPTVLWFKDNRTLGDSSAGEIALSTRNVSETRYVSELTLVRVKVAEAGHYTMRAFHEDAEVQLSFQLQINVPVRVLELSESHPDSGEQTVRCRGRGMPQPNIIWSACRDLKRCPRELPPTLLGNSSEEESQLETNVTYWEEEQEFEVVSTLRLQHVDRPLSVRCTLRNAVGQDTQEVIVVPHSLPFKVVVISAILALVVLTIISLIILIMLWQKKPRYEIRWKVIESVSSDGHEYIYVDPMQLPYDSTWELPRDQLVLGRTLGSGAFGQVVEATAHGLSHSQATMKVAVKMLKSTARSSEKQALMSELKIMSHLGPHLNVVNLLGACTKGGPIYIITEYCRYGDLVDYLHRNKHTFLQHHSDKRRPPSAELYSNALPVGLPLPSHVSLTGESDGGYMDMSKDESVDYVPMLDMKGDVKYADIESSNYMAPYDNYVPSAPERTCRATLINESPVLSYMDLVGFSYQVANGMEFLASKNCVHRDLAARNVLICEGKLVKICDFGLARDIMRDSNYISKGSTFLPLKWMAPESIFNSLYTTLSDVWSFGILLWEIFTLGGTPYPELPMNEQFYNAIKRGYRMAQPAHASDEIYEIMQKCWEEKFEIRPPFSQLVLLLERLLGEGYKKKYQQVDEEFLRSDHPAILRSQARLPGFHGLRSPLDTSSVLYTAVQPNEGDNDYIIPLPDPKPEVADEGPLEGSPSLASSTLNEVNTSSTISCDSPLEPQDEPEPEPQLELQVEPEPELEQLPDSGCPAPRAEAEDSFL
# [29] = biological target: Platelet-derived growth factor receptor alpha (Homo sapiens, UniProt P16234); experiment: Binding affinity to PDGFRalpha expressed in HEK-293 cells; format: cell-based, HEK293
# [30] = biological target: T6, Receptor-type tyrosine-protein kinase FLT3 (Homo sapiens, UniProt P36888); experiment: Inhibition of FLT3 phosphorylation in human MV4-11 cells; format: cell-based
# T6 sequence (P36888 whole entry): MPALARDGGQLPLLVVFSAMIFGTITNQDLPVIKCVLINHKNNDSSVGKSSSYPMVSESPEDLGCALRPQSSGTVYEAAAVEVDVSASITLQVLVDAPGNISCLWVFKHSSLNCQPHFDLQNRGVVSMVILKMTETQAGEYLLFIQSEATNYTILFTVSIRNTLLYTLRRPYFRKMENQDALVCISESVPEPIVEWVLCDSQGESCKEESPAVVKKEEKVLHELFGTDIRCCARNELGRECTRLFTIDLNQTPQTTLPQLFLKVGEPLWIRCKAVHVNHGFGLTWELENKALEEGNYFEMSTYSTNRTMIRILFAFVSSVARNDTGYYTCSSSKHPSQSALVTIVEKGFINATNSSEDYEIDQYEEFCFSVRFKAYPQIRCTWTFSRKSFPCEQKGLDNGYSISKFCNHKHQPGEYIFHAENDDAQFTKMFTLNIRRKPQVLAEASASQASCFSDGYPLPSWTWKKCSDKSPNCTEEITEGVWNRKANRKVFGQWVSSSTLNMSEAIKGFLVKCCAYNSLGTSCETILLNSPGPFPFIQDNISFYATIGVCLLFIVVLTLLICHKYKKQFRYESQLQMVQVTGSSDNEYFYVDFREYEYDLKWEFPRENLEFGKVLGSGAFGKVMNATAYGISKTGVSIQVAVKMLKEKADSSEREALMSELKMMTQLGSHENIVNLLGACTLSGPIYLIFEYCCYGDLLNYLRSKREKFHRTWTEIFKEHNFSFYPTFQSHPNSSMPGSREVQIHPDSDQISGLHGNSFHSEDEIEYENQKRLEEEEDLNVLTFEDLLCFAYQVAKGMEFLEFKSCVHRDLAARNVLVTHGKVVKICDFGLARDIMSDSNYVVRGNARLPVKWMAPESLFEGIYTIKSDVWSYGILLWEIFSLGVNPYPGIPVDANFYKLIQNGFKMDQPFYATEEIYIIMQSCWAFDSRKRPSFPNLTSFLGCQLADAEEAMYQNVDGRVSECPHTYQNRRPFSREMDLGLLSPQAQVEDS
# [31] = biological target: T7, Macrophage colony-stimulating factor 1 receptor (Homo sapiens, UniProt P07333); experiment: Inhibition of M-CSF-induced […] -fussed CSF1R phosphorylation expressed in HEK293 cells after 2 hrs by sandwich ELISA; format: cell-based
# [32] = biological target: T7, Macrophage colony-stimulating factor 1 receptor; experiment: Binding affinity to CSF1R expressed in HEK-293 cells after 1 hr; format: cell-based, HEK293
# [33] = biological target: T6, Receptor-type tyrosine-protein kinase FLT3; experiment: Binding affinity to FLT3 expressed in HEK-293 cells after 1 hr; format: cell-based, HEK293
# T4 sequence (P10721 whole entry): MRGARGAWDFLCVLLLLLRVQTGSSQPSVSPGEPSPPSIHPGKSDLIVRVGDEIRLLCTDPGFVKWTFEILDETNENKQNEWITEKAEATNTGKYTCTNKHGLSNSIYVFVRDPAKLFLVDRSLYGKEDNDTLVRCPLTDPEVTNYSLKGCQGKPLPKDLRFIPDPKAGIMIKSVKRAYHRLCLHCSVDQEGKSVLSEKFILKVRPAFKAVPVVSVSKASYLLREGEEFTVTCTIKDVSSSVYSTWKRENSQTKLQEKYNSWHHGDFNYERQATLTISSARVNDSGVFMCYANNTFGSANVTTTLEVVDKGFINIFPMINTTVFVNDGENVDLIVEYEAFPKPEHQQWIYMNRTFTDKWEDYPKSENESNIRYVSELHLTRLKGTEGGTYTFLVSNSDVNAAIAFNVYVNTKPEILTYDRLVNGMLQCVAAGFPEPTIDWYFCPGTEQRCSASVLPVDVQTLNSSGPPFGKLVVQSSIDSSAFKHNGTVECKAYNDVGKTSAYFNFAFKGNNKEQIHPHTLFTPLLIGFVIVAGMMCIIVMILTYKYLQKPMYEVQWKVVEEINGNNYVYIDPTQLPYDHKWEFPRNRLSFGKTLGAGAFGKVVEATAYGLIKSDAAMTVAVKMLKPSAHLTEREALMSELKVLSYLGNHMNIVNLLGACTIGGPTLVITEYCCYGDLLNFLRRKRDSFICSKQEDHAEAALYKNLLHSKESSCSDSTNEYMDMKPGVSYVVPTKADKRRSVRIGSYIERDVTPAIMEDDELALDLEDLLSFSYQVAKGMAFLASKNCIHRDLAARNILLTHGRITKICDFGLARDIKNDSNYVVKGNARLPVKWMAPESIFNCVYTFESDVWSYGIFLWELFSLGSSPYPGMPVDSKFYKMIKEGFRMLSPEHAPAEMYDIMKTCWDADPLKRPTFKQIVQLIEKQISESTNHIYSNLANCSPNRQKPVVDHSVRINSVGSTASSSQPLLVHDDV
# T2 sequence (P10635 whole entry): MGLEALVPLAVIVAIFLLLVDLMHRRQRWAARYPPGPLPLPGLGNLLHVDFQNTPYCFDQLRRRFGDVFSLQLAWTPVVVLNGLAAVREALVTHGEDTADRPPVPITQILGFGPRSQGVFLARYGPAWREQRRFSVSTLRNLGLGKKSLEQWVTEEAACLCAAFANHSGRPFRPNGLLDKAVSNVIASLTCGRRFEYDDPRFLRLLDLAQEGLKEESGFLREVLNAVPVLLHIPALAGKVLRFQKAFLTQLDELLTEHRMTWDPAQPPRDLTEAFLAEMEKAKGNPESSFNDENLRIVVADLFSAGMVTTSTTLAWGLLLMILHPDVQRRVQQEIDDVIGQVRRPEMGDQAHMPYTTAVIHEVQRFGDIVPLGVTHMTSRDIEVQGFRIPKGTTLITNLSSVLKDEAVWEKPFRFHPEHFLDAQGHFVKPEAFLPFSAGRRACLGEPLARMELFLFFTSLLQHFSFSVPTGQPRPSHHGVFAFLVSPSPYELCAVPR
# Sequence of Cytochrome P450 2C19 (P33261 whole entry): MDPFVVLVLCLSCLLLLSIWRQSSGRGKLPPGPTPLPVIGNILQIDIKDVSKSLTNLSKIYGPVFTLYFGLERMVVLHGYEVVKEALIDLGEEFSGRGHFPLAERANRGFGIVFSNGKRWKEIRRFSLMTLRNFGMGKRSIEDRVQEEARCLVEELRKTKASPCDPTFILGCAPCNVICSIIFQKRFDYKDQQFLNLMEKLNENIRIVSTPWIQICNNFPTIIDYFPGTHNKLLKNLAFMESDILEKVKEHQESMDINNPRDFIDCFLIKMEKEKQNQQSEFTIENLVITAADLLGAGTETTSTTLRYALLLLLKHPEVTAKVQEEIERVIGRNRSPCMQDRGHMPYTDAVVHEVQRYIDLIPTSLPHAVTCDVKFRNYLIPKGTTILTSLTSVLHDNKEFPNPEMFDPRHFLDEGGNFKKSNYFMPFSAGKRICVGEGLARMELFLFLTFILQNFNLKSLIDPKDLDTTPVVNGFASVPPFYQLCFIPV
# T1 sequence (P08684 whole entry): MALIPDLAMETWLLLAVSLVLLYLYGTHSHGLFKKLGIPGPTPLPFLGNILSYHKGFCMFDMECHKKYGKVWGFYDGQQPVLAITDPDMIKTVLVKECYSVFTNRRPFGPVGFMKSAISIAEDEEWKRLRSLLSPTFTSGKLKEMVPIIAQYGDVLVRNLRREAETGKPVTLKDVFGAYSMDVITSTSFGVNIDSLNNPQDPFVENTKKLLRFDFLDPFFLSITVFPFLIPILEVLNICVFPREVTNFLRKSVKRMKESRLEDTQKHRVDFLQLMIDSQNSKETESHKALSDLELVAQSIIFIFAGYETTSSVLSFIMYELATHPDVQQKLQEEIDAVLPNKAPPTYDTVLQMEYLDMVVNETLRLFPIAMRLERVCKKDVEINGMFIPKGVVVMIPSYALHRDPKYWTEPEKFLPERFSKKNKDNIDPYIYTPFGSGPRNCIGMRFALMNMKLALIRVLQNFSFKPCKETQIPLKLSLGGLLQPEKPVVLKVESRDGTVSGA
# Sequence of Cytochrome P450 2C9 (P11712 whole entry): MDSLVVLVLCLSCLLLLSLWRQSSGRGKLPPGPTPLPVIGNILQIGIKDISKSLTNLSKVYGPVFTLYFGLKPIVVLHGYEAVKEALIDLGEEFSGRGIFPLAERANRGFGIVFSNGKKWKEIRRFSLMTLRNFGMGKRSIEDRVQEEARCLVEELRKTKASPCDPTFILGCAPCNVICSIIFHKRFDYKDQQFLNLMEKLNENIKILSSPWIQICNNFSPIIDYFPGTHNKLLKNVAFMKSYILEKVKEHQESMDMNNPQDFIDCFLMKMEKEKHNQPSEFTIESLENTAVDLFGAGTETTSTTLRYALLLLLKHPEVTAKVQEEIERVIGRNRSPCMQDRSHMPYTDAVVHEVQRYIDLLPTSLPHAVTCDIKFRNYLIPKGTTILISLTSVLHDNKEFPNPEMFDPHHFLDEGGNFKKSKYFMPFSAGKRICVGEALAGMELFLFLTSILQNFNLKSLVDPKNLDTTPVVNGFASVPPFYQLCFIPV
# T7 sequence (P07333 whole entry): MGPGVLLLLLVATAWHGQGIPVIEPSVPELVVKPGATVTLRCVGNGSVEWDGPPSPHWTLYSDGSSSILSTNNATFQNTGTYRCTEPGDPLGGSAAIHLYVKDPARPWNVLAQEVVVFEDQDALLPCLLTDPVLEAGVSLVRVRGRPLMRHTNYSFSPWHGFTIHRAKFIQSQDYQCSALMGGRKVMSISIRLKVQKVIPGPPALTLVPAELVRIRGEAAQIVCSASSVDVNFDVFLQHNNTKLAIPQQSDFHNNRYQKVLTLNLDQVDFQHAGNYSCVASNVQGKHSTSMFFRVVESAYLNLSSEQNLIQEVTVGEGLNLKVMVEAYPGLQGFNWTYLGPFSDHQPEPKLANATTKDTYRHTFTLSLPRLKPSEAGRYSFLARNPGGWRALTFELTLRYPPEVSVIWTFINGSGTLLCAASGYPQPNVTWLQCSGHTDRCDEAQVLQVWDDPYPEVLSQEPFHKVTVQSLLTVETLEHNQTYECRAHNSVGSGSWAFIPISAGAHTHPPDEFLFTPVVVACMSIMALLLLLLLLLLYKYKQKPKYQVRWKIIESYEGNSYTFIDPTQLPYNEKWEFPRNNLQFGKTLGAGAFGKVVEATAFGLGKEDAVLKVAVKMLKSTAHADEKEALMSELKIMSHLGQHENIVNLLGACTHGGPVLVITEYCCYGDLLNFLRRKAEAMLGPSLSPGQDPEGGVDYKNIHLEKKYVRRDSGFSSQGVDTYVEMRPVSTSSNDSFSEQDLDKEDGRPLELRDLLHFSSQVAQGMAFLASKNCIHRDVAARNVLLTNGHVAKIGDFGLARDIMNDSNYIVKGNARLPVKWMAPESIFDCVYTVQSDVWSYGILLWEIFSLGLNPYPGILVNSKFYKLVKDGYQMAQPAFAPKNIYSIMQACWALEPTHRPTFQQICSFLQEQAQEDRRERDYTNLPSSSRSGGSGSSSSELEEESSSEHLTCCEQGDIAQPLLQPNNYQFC
structure (smiles),measurement,setting,value
CCN1C(C)(C)CC(Oc2ccc(C(=O)Nc3ccc(NC(=O)Nc4cc(C(C)(C)C)on4)cc3)nc2)CC1(C)C.CS(=O)(=O)O,solubility,[1],> 1000 µg/mL
CC(C)(C)c1cc(NC(=O)Nc2ccc(NC(=O)c3ccc(OC4CCN(C5CC5)CC4)cn3)cc2)no1,bioavailability,[2],36%
same,AUC,[3],9.5 µM·h
same,clearance,[4],12 mL/min/kg
CCN1CCC(Oc2ccc(C(=O)Nc3ccc(NC(=O)Nc4cc(C(C)(C)C)on4)cc3)nc2)CC1 [listing 1 of 2 here],inhibition,[5],Dose-dependent effect
CC(C)(C)c1cc(NC(=O)Nc2ccc(NC(=O)c3cc4ccccc4cn3)cc2)no1,solubility,[6],< 5 µg/mL
same,bioavailability,[2],9%
same,AUC,[3],0.8 µM·h
same,clearance,[4],47 mL/min/kg
CCN1CCC(Oc2ccc(C(=O)Nc3ccc(NC(=O)Nc4cc(C(C)(C)C)on4)cc3)nc2)CC1 [listing 2 of 2 here],inhibition in vivo at 100 mg/kg,[7],73%
same,inhibition in vivo at 30 mg/kg,[8],46%
same,inhibition in vivo at 10 mg/kg,[9],31%
same,Activity,[10],Non-toxic
same,AUC,[11],9.9 µM·h
same,Activity,[12],Toxic
same,IC50,[13],> 40000 nM
same,IC50,[14],> 40000 nM
same,IC50,[15],> 40000 nM
same,IC50,[16],> 40000 nM
same,IC50,[17],> 40000 nM
same,Kd,[18],0.6 nM
same,IC50,[19],7.9 nM
same,bioavailability,[2],20%
same,AUC,[3],4.8 µM·h
same,clearance,[4],25.8 mL/min/kg
CCN1C(C)(C)CC(Oc2ccc(C(=O)Nc3ccc(NC(=O)Nc4cc(C(C)(C)C)on4)cc3)nc2)CC1(C)C,Activity,[20],Non-toxic
same,inhibition in vivo at 30 mg/kg,[8],79%
same,inhibition in vivo at 10 mg/kg,[9],54%
same,inhibition in vivo at 3 mg/kg,[21],29%
same,Activity,[22],Non-toxic
same,Activity,[23],Non-toxic
same,Activity,[10],Non-toxic
same,AUC,[11],56.4 µM·h
same,Activity,[12],Toxic
same,Activity,[24],Not Active
same,Activity,[25],Not Active
same,Activity,[26],Not Active
same,IC50,[14],> 40000 nM
same,IC50,[15],> 40000 nM
same,IC50,[16],> 40000 nM
same,IC50,[17],> 40000 nM
same,Kd,[27],1 nM
same,IC50,[28],7.7 nM
same,Kd,[29],1.3 nM
same,Kd,[18],1 nM
same,IC50,[19],1.2 nM
same,IC50,[30],2 nM
same,IC50,[31],10.5 nM
same,bioavailability,[2],44%
same,AUC,[3],10 µM·h
same,clearance,[4],14 mL/min/kg
same,Kd,[32],1.57 nM
same,Kd,[33],0.5 nM
Cc1ccnc(C(=O)Nc2ccc(NC(=O)Nc3cc(C(C)(C)C)on3)cc2)c1,bioavailability,[2],4%
same,AUC,[3],0.5 µM·h
same,clearance,[4],37.9 mL/min/kg
CCN1CCC(Cc2ccc(C(=O)Nc3ccc(NC(=O)Nc4cc(C(C)(C)C)on4)cc3)nc2)CC1,bioavailability,[2],12%
same,AUC,[3],1.4 µM·h
same,clearance,[4],24 mL/min/kg
CN1C(C)(C)CC(Oc2ccc(C(=O)Nc3ccc(NC(=O)Nc4cc(C(C)(C)C)on4)cc3)nc2)CC1(C)C,inhibition,[5],Dose-dependent effect
